From patent publication US8084481B2, “Substituted arylimidazolone and triazolone as inhibitors of vasopressin receptors” (Bayer Pharma Aktiengesellschaft, priority 2006, dated 2011)

Columns and labels:
[1] = target: T1, human V1a receptor (Homo sapiens, UniProt P37288); test: Cellular in vitro test for determination of the vasopressin receptor activity (aequorin luminescence, CHO cells), human V1a; format: cell-based; conditions: cell line transfected with the human V1a receptor, antagonism of [Arg8]-vasopressin, read-out: IC50 hV1a
T1 construct: expressed in transfected cells; host or cells: CHO K1 (ATCC), constitutively expressing a modified aequorin
T1 sequence (P37288 whole entry): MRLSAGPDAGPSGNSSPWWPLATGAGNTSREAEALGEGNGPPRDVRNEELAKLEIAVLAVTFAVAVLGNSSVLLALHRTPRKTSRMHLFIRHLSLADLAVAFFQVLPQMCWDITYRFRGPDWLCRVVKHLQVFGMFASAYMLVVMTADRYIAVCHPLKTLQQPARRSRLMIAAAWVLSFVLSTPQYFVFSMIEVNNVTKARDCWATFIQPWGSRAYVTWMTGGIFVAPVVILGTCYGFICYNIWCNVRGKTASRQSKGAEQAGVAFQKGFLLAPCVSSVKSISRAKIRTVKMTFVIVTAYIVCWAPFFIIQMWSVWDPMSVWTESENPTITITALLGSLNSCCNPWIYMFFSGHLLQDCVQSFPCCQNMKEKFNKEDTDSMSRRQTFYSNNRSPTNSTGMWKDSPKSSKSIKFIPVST
Text: (§1) B-1. Cellular In Vitro Test for Determination of the Vasopressin Receptor Activity
(§2) The identification of agonists and antagonists of the V1a- and V2-vasopressin receptors in man and the rat and the quantification of the activity of the compounds according to the invention are effected by means of recombinant cell lines. These cells are originally derived from the ovarian epithelial cells of the hamster (Chinese Hamster Ovary, CHO K1, ATCC: American Type Culture Collection, Manassas, Va. 20108, USA). The test cell lines constitutively express a modified form of the calcium-sensitive photoprotein aequorin, which after reconstitution with the cofactor coelenterazine emits light on an increase in the free calcium concentrations [Rizzuto R, Simpson A W, Brini M, Pozzan T, Nature 358, 325-327 (1992)]. In addition, the cells are stably transfected with human or rat V1a- or V2 receptors. In the case of the Gs-coupled V2 receptors, the cells are stably transfected with a further gene which codes for the promiscuous Gα16-Protein [Amatruda T T, Steele D A, Slepak V Z, Simon M I, Proceedings of the National Academy of Science USA 88, 5587-5591 (1991)]. The resulting vasopressin receptor test cells react to stimulation of the recombinantly expressed vasopressin receptors with an intracellular release of calcium ions, which can be quantified by the resulting aequorin luminescence with a suitable luminometer [Milligan G, Marshall F, Rees S, Trends in Pharmacological Sciences 17, 235-237 (1996)].
(§3) On the day before the text, the cells are plated out in culture medium (DMEM, 10% FCS, 2 mM glutamine, 10 mM HEPES) in 384-well microtitre plates and kept in a cell incubator (96% atmospheric humidity, 5% v/v CO2, 37° C.). On the test day, the culture medium is replaced by a Tyrode solution (140 mM NaCl, 5 mM KCl, 1 mM MgCl2, 2 mM CaCl2, 20 mM glucose, 20 mM HEPES) which in addition contains the cofactor coelenterazine (50 μM), and the microtitre plate is then incubated for a further 3-4 hours. The test substances in various concentrations are placed beforehand in the wells of the microtitre plate for 10 to 20 minutes, before the agonist [Arg^8]-vasopressin is added and the resulting light signal immediately measured in the luminometer. The IC50 values are calculated by means of the computer program GraphPad PRISM (Version 3.02).

[2] = target: T2, human V2 receptor (Homo sapiens, UniProt P30518); test: Cellular in vitro test for determination of the vasopressin receptor activity (aequorin luminescence, CHO cells), human V2; format: cell-based; conditions: cell line transfected with the human V2 receptor, antagonism of [Arg8]-vasopressin, read-out: IC50 hV2
T2 construct: expressed in transfected cells; host or cells: CHO K1 (ATCC), constitutively expressing a modified aequorin and stably co-transfected with promiscuous G-alpha-16
T2 sequence (P30518 whole entry): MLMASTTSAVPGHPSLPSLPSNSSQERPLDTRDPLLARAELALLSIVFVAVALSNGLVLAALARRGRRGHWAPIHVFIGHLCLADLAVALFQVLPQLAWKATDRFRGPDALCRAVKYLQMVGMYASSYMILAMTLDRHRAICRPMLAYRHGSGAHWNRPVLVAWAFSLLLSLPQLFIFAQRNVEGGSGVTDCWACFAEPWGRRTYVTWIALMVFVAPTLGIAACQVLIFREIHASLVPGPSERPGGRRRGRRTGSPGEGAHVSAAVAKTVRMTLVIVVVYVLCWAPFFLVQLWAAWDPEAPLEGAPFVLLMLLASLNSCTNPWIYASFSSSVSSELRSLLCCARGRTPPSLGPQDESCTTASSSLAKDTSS
Text: as §1, §2, §3

Structure (SMILES): O=C(Cn1nc(-c2ccc(Cl)cc2)n(C2CC2)c1=O)NC(C(=O)NC1CC1)c1ccccc1C(F)(F)F (stereo not drawn) [Example 340]
- IC50 [1]: 39 nM
- IC50 [2]: 1150 nM

Structure (SMILES): COCCn1c(-c2ccc(Cl)cc2)nn(CC(=O)NC(C(=O)N(C)C)c2cccc(C(F)(F)F)c2)c1=O (stereo not drawn) [Example 348]
- IC50 [1]: 4 nM
- IC50 [2]: 217 nM

Structure (SMILES): O=C(Cn1nc(-c2ccc(Cl)cc2)n(CC(O)C(F)(F)F)c1=O)NCCc1ccccc1OC(F)(F)F (stereo not drawn) [Example 359]
- IC50 [1]: 19 nM
- IC50 [2]: 9 nM

Structure (SMILES): O=C(Cn1nc(-c2ccc(Cl)cc2)n(CC(O)C(F)(F)F)c1=O)NCC(F)(F)c1cccc(C(F)(F)F)c1 (stereo not drawn) [Example 364]
- IC50 [1]: 22 nM
- IC50 [2]: 8 nM

Structure (SMILES): CC(C)(NC(=O)Cn1nc(-c2ccc(Cl)cc2)n(CC(F)(F)F)c1=O)c1cccc(C(F)(F)F)c1 [Example 386]
- IC50 [1]: 611 nM
- IC50 [2]: 23 nM

Structure (SMILES): CSc1ccccc1CNC(=O)Cn1nc(-c2ccc(Cl)cc2)n(Cc2ccccc2F)c1=O [Example 394, 2-[3-(4-chlorophenyl)-4-(2-fluorobenzyl)-5-oxo-4,5-dihydro-1H-1,2,4-triazol-1-yl]-N-[2-(methylthio)benzyl]-acetamide]
- IC50 [1]: 19 nM
- IC50 [2]: 19 nM

Structure (SMILES): CC(=O)Cn1c(-c2ccc(Cl)cc2)nn(CC(=O)NCc2cccc(C(F)(F)F)c2)c1=O [Example 415]
- IC50 [1]: 870 nM
- IC50 [2]: 26 nM

Structure (SMILES): C#CCn1c(-c2ccc(Cl)cc2)nn(CC(=O)NCCc2ccccc2C(F)(F)F)c1=O [Example 421]
- IC50 [1]: 32 nM
- IC50 [2]: 88 nM

Structure (SMILES): C=C(C)Cn1c(-c2ccc(Cl)cc2)nn(CC(=O)NC(C)(C)c2cccc(C(F)(F)F)c2)c1=O [Example 423, 2-[3-(4-chlorophenyl)-4-(2-methylprop-2-en-1-yl)-5-oxo-4,5-dihydro-1H-1,2,4-triazol-1-yl]-N-1-methyl-1-[3-(trifluoromethyl)phenyl]ethyl-acetamide]
- IC50 [1]: 157 nM
- IC50 [2]: 15 nM

Structure (SMILES): CC(C)(NC(=O)Cn1nc(-c2ccc(Cl)cc2)n(Cc2cccc(F)c2)c1=O)c1cccc(C(F)(F)F)c1 [Example 433, 2-[3-(4-chlorophenyl)-4-(3-fluorobenzyl)-5-oxo-4,5-dihydro-1H-1,2,4-triazol-1-yl]-N-1-methyl-1-[3-(trifluoromethyl)phenyl]ethyl-acetamide]
- IC50 [1]: 199 nM
- IC50 [2]: 9 nM

Structure (SMILES): CCOC(=O)Cn1c(-c2ccc(Cl)cc2)nn(CC(=O)NCCc2ccccc2C(F)(F)F)c1=O [Example 439]
- IC50 [1]: 58 nM
- IC50 [2]: 77 nM

Structure (SMILES): CCC(=O)Cn1c(-c2ccc(Cl)cc2)nn(CC(=O)NC(C)(C)c2cccc(C(F)(F)F)c2)c1=O [Example 443, 2-[3-(4-chlorophenyl)-5-oxo-4-(2-oxobutyl)-4,5-dihydro-1H-1,2,4-triazol-1-yl]-N-1-methyl-1-[3-(trifluoromethyl)phenyl]ethyl-acetamide]
- IC50 [1]: 93 nM
- IC50 [2]: 23 nM

Structure (SMILES): C/C=C/n1c(-c2ccc(Cl)cc2)nn(CC(=O)NCc2cccc(C(F)(F)F)c2)c1=O [Example 457, 2-{3-(4-chlorophenyl)-5-oxo-4-[(1E)-prop-1-en-1-yl]-4,5-dihydro-1H-1,2,4-triazol-1-yl}-N-[3-(trifluoromethyl)benzyl]-acetamide]
- IC50 [1]: 43 nM
- IC50 [2]: 29 nM

Structure (SMILES): CC(C)(NC(=O)Cn1nc(-c2ccc(Cl)cc2)n(CCN2CCOCC2)c1=O)c1cccc(C(F)(F)F)c1 [Example 462, 2-[3-(4-chlorophenyl)-4-(2-morpholin-4-ylethyl)-5-oxo-4,5-dihydro-1H-1,2,4-triazol-1-yl]-N-{1-methyl-1-[3-(trifluoromethyl)phenyl]ethyl}-acetamide]
- IC50 [1]: 373 nM
- IC50 [2]: 46 nM

Structure (SMILES): CC(C)(NC(=O)Cn1nc(-c2ccc(Cl)cc2)n(CC(=O)O)c1=O)c1cccc(C(F)(F)F)c1 [Example 467, 3-(4-chlorophenyl)-1-[2-(1-methyl-1-[3-(trifluoromethyl)phenyl]ethylamino)-2-oxoethyl]-5-oxo-1,5-dihydro-4H-1,2,4-triazol-4-yl-acetic acid]
- IC50 [1]: 439 nM
- IC50 [2]: 26 nM

Structure (SMILES): CC(C)(NC(=O)Cn1nc(-c2ccc(Cl)cc2)n(Cc2cccc(C(=O)O)c2)c1=O)c1cccc(C(F)(F)F)c1 [Example 471, 3-(3-(4-chlorophenyl)-1-[2-(1-methyl-1-[3-(trifluoromethyl)phenyl]ethylamino)-2-oxoethyl]-5-oxo-1,5-dihydro-4H-1,2,4-triazol-4-ylmethyl)-benzoic acid]
- IC50 [1]: 39 nM
- IC50 [2]: 2 nM

Structure (SMILES): CN(C)C(=O)c1cccc(Cn2c(-c3ccc(Cl)cc3)nn(CC(=O)NC(C)(C)c3cccc(C(F)(F)F)c3)c2=O)c1 [Example 475, 3-(3-(4-chlorophenyl)-1-[2-(1-methyl-1-[3-(trifluoromethyl)phenyl]ethylamino)-2-oxoethyl]-5-oxo-1,5-dihydro-4H-1,2,4-triazol-4-ylmethyl)-N,N-dimethylbenzamide]
- IC50 [1]: 328 nM
- IC50 [2]: 20 nM

Structure (SMILES): CC(C)(NC(=O)Cn1nc(-c2ccc(Cl)cc2)n(CC(N)=O)c1=O)c1cccc(C(F)(F)F)c1 [Example 476]
- IC50 [1]: 1230 nM
- IC50 [2]: 94 nM

Structure (SMILES): CS(=O)(=O)c1ccccc1CNC(=O)Cn1nc(-c2ccc(Cl)cc2)n(Cc2ccccc2F)c1=O [Example 482, 2-[3-(4-chlorophenyl)-4-(2-fluorobenzyl)-5-oxo-4,5-dihydro-1H-1,2,4-triazol-1-yl]-N-[2-(methylsulphonyl)benzyl]-acetamide]
- IC50 [1]: 9 nM
- IC50 [2]: 250 nM

Structure (SMILES): CC(C)(NC(=O)Cn1nc(-c2ccc(Cl)cc2)n(CC(=O)C(F)(F)F)c1=O)c1cccc(C(F)(F)F)c1 [Example 489, 2-[3-(4-chlorophenyl)-5-oxo-4-(3,3,3-trifluoro-2-oxopropyl)-4,5-dihydro-1H-1,2,4-triazol-1-yl]-N-{1-methyl-1-[3-(trifluoromethyl)phenyl]ethyl}-acetamide]
- IC50 [1]: 35 nM
- IC50 [2]: 2 nM

Structure (SMILES): COCCn1c(-c2ccc(Cl)cc2)nn(CC(=O)NCC2(c3ccccc3F)CCCC2)c1=O [Example 494]
- IC50 [1]: 49 nM
- IC50 [2]: 257 nM

Structure (SMILES): Cc1csc(-c2nn(CC(=O)NCc3cccc(C(F)(F)F)c3)c(=O)n2CC(C)C)c1Cl [Example 496, 2-[3-(3-chloro-4-methyl-2-thienyl)-4-isobutyl-5-oxo-4,5-dihydro-1H-1,2,4-triazol-1-yl]-N-[3-(trifluoromethyl)phenylmethyl]-acetamide]
- IC50 [1]: 166 nM
- IC50 [2]: 576 nM

Structure (SMILES): O=C(Cn1cc(-c2ccc(Cl)s2)n(Cc2ccccc2F)c1=O)NCc1cccc(C(F)(F)F)c1 [Example 503]
- IC50 [1]: 25 nM
- IC50 [2]: 221 nM

Structure (SMILES): O=C(Cn1cc(-c2ccc(Cl)cc2)n(CC2CC2)c1=O)NCCc1ccccc1C(F)(F)F [Example 508]
- IC50 [1]: 5 nM
- IC50 [2]: 336 nM

Structure (SMILES): NC(=O)C(NC(=O)Cn1nc(-c2ccc(Cl)cc2)n(CC(O)C(F)(F)F)c1=O)c1cccc(C(F)(F)F)c1 (stereo not drawn) [Example 509, 2-[3-(4-chlorophenyl)-5-oxo-4-(3,3,3-trifluoro-2-hydroxypropyl)-4,5-dihydro-1H-1,2,4-triazol-1-yl]-N-{2-amino-2-oxo-1-[3-(trifluoromethyl)phenyl]ethyl}-acetamide]
- IC50 [1]: 8 nM
- IC50 [2]: 4 nM

Structure (SMILES): O=C(Cn1nc(-c2ccc(Cl)cc2)n(CC(O)C(F)(F)F)c1=O)NC(C(=O)NC1CC1)c1cccc(C(F)(F)F)c1 (stereo not drawn) [Example 510, 2-([3-(4-chlorophenyl)-5-oxo-4-(3,3,3-trifluoro-2-hydroxypropyl)-4,5-dihydro-1H-1,2,4-triazol-1-yl]acetylamino)-N-cyclopropyl-2-[3-(trifluoromethyl)phenyl]-acetamide]
- IC50 [1]: 4 nM
- IC50 [2]: 7 nM

Structure (SMILES): O=C(Cn1nc(-c2ccc(Cl)cc2)n(CC(O)C(F)(F)F)c1=O)NC(C(=O)N1CCOCC1)c1cccc(C(F)(F)F)c1 (stereo not drawn) [Example 511, 2-[3-(4-chlorophenyl)-5-oxo-4-(3,3,3-trifluoro-2-hydroxypropyl)-4,5-dihydro-1H-1,2,4-triazol-1-yl]-N-{2-morpholin-4-yl-2-oxo-1-[3-(trifluoromethyl)phenyl]ethyl}-acetamide]
- IC50 [1]: 4 nM
- IC50 [2]: 11 nM
